{
  "source": "patent EP2386631A1",
  "about": "“Purified lipase, methods of modification and applications” (Universiti Putra Malaysia, priority 2010, dated 2011)",
  "key": {"[1]": {"system": "205y lipase (-SP/TM)", "assay": "Effect of inhibitors on lipase activity", "format": "biochemical, Bacillus sphaericus 205y", "conditions": "for Relative activity (100%): 37°C, 30 min prior to lipase assay, mean ± SD, n=3", "method": "The effect of inhibitors were tested on 205y lipase (-SP/TM) activity by preincubating the enzyme with dithiothreitol (DTT), β-mercaptoethanol, phenylmethylsulfonyl fluoride (PMSF), ethylenediaminetetraacetic acid ([…]) except for pepstatin A (1 mM). The residual activity was measured at optimum temperature and expressed as percentage of activity without inhibitor."}, "[2]": {"system": "205y lipase (-SP/TM)", "assay": "Effect of organic solvents on lipase activity", "format": "biochemical, Bacillus sphaericus 205y", "conditions": "enzyme:solvent 3:1 v/v, 37°C, 30 min; relative to activity without organic solvent", "method": "The activity of 205 lipase (-SP/TM) towards the presence of organic solvents was tested by preincubating a mixture of purified enzyme with organic solvents (3:1, v/v) for 30 min at agitation rate of 200 rpm. Residual activity was measured at optimum temperature and expressed as percentage of activity without organic solvent. […] Mixture of enzyme and organic solvent (3:1 v/v) was incubated at 37°C for 30 min and the residual activity was measured using spectrophotometric method."}, "[3]": {"system": "205y lipase (-SP/TM)", "assay": "Effect of metal ions on lipase activity", "format": "biochemical, Bacillus sphaericus 205y", "conditions": "1 mM metal chloride, 50 mM potassium phosphate buffer pH 8.0, 37°C, 30 min", "method": "The effect of metal ions on lipase activity was investigated by treating 205y lipase (-SP/TM) with 1 mM and 10 mM of various metal chlorides ( Na^+, K^+, Mg^2+, Ca^2+, Fe^2+, Mn^2+, Zn^2+ and Cu^2+) in 50 mM potassium phosphate buffer pH 8.0 at 37°C for 30 min. The mixture was subjected to lipase assay after treatment and expressed as a percentage of activity without the metal chloride."}, "[4]": {"system": "wild type organic solvent stable lipase secreted by Bacillus sphaericus 205y", "conditions": "presence of the solvent; cited from earlier work"}, "[5]": {"system": "205y lipase (-SP/TM)", "assay": "Effect of surfactants on lipase activity", "format": "biochemical, Bacillus sphaericus 205y", "conditions": "0.1% surfactant (text: 1 mM), 37°C, 30 min prior to lipase assay, mean ± SD, n=3", "method": "The activity of 205y lipase (-SP/TM) towards surfactants was determined by preincubating the enzyme with various surfactants at a concentration of 1 mM at 37°C for 30 min. The surfactants used were Tween 20, Tween 40, Tween 60, Tween 80, Triton X-100, sodium dodecyl sulphate (SDS) and sodium lauryl sulphate (SLS). Residual activity was measured colorimetrically and expressed as percentage of activity without surfactant. […]. Table 7. Effect of surfactants on 205y lipase (-SP/TM) activity"}, "[6]": {"conditions": "cited from earlier work"}},
  "note": "Several values for one entry are separate records, joined by “and”; a condition that tells them apart may be missing. Identical values can stand only once. Square brackets hold non-standard residues; d marks the D form. Peptide text beside a SMILES is read from it. * marks the point of attachment. Sta = CC(C)C[C@H](N)[C@@H](O)CC(=O)O; Isovaleryl = CC(C)CC(=O)*",
  "data": [
    {"molecule": "O[C@H](CS)[C@H](O)CS", "note": "(racemic) [DTT, dithiothreitol]", "values": [
      {"measurement": "inhibition", "setting": "[1]; 1 mM inhibitor", "value": 16.6, "unit": "%"},
      {"measurement": "Relative activity (100%)", "setting": "[1]; 1 mM inhibitor", "value": "83.4 ± 2.0", "unit": "%"},
      {"measurement": "Relative activity (100%)", "setting": "[1]; 10 mM inhibitor", "value": "45.5 ± 2.5", "unit": "%"}
    ]},
    {"molecule": "CCCCCCCCCCO", "note": "[1-decanol]", "values": [
      {"measurement": "lost in activity", "setting": "[2]", "value": "more than 50%"}
    ]},
    {"molecule": "[Ca+2]", "note": "[Ca^2+]", "values": [
      {"measurement": "effect on lipase activity", "setting": "[3]", "value": "promoted"}
    ]},
    {"molecule": "[Cu+2]", "note": "[Cu^2+]", "values": [
      {"measurement": "activity retained", "setting": "[3]", "value": "> 50", "unit": "%"}
    ]},
    {"molecule": "C[S+](C)[O-]", "note": "[DMSO, dimethyl sulfoxide]", "values": [
      {"measurement": "enhancement in activity", "setting": "[2]", "value": "more than 30%"},
      {"measurement": "lipase activity lost", "setting": "[4]", "value": "approximately 80%"}
    ]},
    {"molecule": "O=C(O)CN(CCN(CC(=O)O)CC(=O)O)CC(=O)O", "note": "[EDTA, ethylenediaminetetraacetic acid]", "values": [
      {"measurement": "Relative activity (100%)", "setting": "[1]; 1 mM inhibitor", "value": "78.2% and 78.2 ± 1.8%"},
      {"measurement": "Relative activity (100%)", "setting": "[1]; 10 mM inhibitor", "value": "40.1 ± 4.2", "unit": "%"}
    ]},
    {"molecule": "[Fe+2]", "note": "[Fe^2+]", "values": [
      {"measurement": "activity retained", "setting": "[3]", "value": "> 50", "unit": "%"}
    ]},
    {"molecule": "[K+]", "note": "[K^+]", "values": [
      {"measurement": "effect on lipase activity", "setting": "[3]", "value": "promoted"}
    ]},
    {"molecule": "[Mg+2]", "note": "[Mg^2+]", "values": [
      {"measurement": "effect on lipase activity", "setting": "[3]", "value": "promoted"}
    ]},
    {"molecule": "[Mn+2]", "note": "[Mn^2+]", "values": [
      {"measurement": "activity retained", "setting": "[3]", "value": "> 50", "unit": "%"}
    ]},
    {"molecule": "[Na+]", "note": "[Na^+]", "values": [
      {"measurement": "activity retained", "setting": "[3]", "value": "> 50", "unit": "%"}
    ]},
    {"molecule": "O=S(=O)(F)Cc1ccccc1", "note": "[PMSF, phenylmethylsulfonyl fluoride]", "values": [
      {"measurement": "Relative activity (100%)", "setting": "[1]; 1 mM inhibitor", "value": "74.0 ± 3.3", "unit": "%"},
      {"measurement": "Relative activity (100%)", "setting": "[1]; 10 mM inhibitor", "value": "70.3 ± 2.8", "unit": "%"}
    ]},
    {"molecule": "CC(C)CC(=O)N[C@H](C(=O)N[C@H](C(=O)N[C@@H](CC(C)C)[C@@H](O)CC(=O)N[C@@H](C)C(=O)N[C@@H](CC(C)C)[C@@H](O)CC(=O)O)C(C)C)C(C)C", "note": "[Pepstatin A, pepstatin A] (Isovaleryl-VV[Sta]A[Sta]-OH)", "values": [
      {"measurement": "Relative activity (100%)", "setting": "[1]; 1 mM inhibitor", "value": "86.9 ± 1.5", "unit": "%"}
    ]},
    {"molecule": "CCCCCCCCCCCCOS(=O)(=O)[O-].[Na+]", "note": "[SDS, sodium dodecyl sulphate]", "values": [
      {"measurement": "Relative activity (100%)", "setting": "[5]; sulphate", "value": "28.9 ± 2.8", "unit": "%"}
    ]},
    {"molecule": "CCCCCCCCCCCCOS(=O)(=O)[O-].[Na+]", "note": "[SLS, sodium lauryl sulphate]", "values": [
      {"measurement": "Relative activity (100%)", "setting": "[5]; sulphate", "value": "52.5% and 52.5 ± 1.9%"}
    ]},
    {"molecule": "[Zn+2]", "note": "[Zn^2+]", "values": [
      {"measurement": "activity retained", "setting": "[3]", "value": "> 50", "unit": "%"}
    ]},
    {"molecule": "CC#N", "note": "[acetonitrile]", "values": [
      {"measurement": "enhancement in activity", "setting": "[2]", "value": "more than 30%"},
      {"measurement": "effect on lipase activity", "setting": "[4]", "value": "complete deactivation"},
      {"measurement": "log P", "setting": "[6]", "value": -0.15}
    ]},
    {"molecule": "CCO", "note": "[ethanol]", "values": [
      {"measurement": "enhancement in activity", "setting": "[2]", "value": "more than 30%"}
    ]},
    {"molecule": "CCCCCCCCCCCCCCCC", "note": "[hexadecane]", "values": [
      {"measurement": "enhancement in activity", "setting": "[2]", "value": "more than 30%"},
      {"measurement": "log P", "setting": "[6]", "value": 8.8}
    ]},
    {"molecule": "CO", "note": "[methanol]", "values": [
      {"measurement": "enhancement in activity", "setting": "[2]", "value": "more than 30%"},
      {"measurement": "log P", "setting": "[6]", "value": -0.76}
    ]},
    {"molecule": "CCCCCCCCCC", "note": "[n-decane]", "values": [
      {"measurement": "enhancement in activity", "setting": "[2]", "value": "more than 30%"},
      {"measurement": "log P", "setting": "[6]", "value": 5.6}
    ]},
    {"molecule": "CCCCCCCCCCCC", "note": "[n-dodecane]", "values": [
      {"measurement": "lost in activity", "setting": "[2]", "value": "more than 50%"},
      {"measurement": "log P", "setting": "[6]", "value": 6.6}
    ]},
    {"molecule": "CCCCCC", "note": "[n-hexane]", "values": [
      {"measurement": "enzyme activity enhanced", "setting": "[4]", "value": 3.5, "unit": "fold"}
    ]},
    {"molecule": "Cc1ccc(C)cc1", "note": "[p-xylene]", "values": [
      {"measurement": "lost in activity", "setting": "[2]", "value": "more than 50%"},
      {"measurement": "enzyme activity enhanced", "setting": "[4]", "value": 2.9, "unit": "fold"},
      {"measurement": "log P", "setting": "[6]", "value": 3.1}
    ]},
    {"molecule": "Cc1ccccc1", "note": "[toluene]", "values": [
      {"measurement": "lost in activity", "setting": "[2]", "value": "more than 50%"}
    ]},
    {"molecule": "OCCS", "note": "[β-mercaptoethanol]", "values": [
      {"measurement": "inhibition", "setting": "[1]; 1 mM inhibitor", "value": 2.8, "unit": "%"},
      {"measurement": "Relative activity (100%)", "setting": "[1]; 1 mM inhibitor", "value": "97.2 ± 2.7", "unit": "%"},
      {"measurement": "Relative activity (100%)", "setting": "[1]; 10 mM inhibitor", "value": "76.3 ± 1.2", "unit": "%"}
    ]},
    {"molecule": "Triton X-100", "values": [
      {"measurement": "Relative activity (100%)", "setting": "[5]", "value": "47.3 ± 4.4", "unit": "%"}
    ]},
    {"molecule": "Tween 20", "values": [
      {"measurement": "Relative activity (100%)", "setting": "[5]", "value": "31.3 ± 1.1", "unit": "%"}
    ]},
    {"molecule": "Tween 40", "values": [
      {"measurement": "Relative activity (100%)", "setting": "[5]", "value": "27.9 ± 1.7", "unit": "%"}
    ]},
    {"molecule": "Tween 60", "values": [
      {"measurement": "Relative activity (100%)", "setting": "[5]", "value": "34.0 ± 3.5", "unit": "%"}
    ]},
    {"molecule": "Tween 80", "values": [
      {"measurement": "Relative activity (100%)", "setting": "[5]", "value": "29.4 ± 2.4", "unit": "%"}
    ]},
    {"molecule": "n-butanol", "values": [
      {"measurement": "lost in activity", "setting": "[2]", "value": "more than 50%"}
    ]}
  ]
}
